Measured values as given in ChEMBL document CHEMBL1201862, “PubChem BioAssay data set” (2004).
Values joined by “and” are separate entries in the source; they are usually repeats but may differ in a detail not shown here. Equal values may be shown once. Active and inactive are the calls of the source.

What was measured:
Caspase-3 = biological target: T1, Caspase-3 (Homo sapiens, UniProt P42574); test: inhibition of recombinant caspase-3 activity – biochemical, luminescence, set 2, selectivity assay for SENP protease inhibitor project, SAR follow-up (AID 588599); type: functional
T1 sequence (P42574 whole entry): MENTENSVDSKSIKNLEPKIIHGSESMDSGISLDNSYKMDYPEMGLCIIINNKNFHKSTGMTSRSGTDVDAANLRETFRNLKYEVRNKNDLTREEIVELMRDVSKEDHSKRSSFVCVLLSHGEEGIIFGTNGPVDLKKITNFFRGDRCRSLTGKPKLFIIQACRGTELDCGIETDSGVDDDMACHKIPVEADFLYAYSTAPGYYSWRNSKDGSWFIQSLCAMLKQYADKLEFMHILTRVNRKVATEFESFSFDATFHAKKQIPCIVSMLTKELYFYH

[1] = biological target: T2, Sentrin-specific protease 7 (Homo sapiens, UniProt Q9BQF6); test: inhibition of human SENP7 cleavage activity – biochemical, luminescence, set 2, SAR follow-up (AID 588600); type: functional
T2 sequence (Q9BQF6 whole entry): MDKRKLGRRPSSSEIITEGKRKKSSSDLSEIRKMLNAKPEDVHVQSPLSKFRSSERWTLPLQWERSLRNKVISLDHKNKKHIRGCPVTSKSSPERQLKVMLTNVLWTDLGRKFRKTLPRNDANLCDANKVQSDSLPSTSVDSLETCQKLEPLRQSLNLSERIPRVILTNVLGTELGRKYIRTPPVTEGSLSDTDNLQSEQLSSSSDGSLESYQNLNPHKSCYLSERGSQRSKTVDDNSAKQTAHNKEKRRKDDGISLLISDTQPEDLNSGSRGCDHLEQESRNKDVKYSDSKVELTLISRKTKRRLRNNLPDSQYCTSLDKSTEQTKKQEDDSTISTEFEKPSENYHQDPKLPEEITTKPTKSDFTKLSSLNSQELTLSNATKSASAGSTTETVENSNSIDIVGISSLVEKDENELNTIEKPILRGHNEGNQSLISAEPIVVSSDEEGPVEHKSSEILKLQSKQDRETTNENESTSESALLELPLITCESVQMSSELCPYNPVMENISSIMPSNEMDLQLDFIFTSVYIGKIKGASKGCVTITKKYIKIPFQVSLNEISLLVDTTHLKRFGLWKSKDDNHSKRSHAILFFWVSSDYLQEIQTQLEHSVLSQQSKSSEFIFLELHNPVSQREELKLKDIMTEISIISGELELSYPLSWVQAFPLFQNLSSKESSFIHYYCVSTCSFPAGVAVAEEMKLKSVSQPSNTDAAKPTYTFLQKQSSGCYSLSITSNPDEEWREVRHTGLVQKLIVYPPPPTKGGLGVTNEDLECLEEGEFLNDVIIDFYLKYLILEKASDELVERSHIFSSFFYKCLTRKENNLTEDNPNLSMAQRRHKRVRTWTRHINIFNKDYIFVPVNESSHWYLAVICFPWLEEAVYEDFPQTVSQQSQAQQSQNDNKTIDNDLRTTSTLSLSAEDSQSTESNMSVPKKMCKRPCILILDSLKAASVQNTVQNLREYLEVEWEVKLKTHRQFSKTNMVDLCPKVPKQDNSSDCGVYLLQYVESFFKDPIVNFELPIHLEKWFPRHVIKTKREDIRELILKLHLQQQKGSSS

[2] = biological target: T3, Sentrin-specific protease 6 (Homo sapiens, UniProt Q9GZR1); test: inhibition of human SENP6 catalytic domain – biochemical, luminescence, set 2, SAR follow-up (AID 588598); type: functional
T3 sequence (Q9GZR1 whole entry): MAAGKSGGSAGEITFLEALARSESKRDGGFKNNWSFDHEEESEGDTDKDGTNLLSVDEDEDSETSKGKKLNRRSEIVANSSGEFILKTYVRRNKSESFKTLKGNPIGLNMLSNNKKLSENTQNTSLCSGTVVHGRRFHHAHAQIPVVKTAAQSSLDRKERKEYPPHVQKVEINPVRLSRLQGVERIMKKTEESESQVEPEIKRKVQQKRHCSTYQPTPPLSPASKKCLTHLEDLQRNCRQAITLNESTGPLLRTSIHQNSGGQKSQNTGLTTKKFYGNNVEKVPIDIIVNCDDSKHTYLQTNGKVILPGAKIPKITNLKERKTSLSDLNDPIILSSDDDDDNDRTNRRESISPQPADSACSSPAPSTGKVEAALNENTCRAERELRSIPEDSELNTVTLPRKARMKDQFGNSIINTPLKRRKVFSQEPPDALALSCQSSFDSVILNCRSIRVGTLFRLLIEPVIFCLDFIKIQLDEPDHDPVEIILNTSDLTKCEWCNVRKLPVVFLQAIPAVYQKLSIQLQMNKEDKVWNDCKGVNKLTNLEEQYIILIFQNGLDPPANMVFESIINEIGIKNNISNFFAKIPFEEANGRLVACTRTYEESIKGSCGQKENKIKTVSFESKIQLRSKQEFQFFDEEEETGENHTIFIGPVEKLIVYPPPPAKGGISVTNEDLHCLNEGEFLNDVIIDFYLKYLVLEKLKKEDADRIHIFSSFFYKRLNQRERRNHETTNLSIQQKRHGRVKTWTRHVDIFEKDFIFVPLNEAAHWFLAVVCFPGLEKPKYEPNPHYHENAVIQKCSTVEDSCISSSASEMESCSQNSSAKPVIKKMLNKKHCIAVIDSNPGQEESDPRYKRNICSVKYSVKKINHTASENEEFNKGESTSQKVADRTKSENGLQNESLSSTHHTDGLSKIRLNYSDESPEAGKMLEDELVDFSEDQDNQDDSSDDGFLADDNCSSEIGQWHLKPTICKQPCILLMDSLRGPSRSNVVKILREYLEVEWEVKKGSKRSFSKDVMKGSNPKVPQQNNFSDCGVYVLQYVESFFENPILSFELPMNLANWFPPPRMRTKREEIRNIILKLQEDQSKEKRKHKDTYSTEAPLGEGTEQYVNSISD

[3] = biological target: T4, Sentrin-specific protease 8 (Homo sapiens, UniProt Q96LD8); test: inhibition of sentrin protease 8 – biochemical, luminescence, set 2, SAR follow-up (AID 588601); type: functional
T4 sequence (Q96LD8 whole entry): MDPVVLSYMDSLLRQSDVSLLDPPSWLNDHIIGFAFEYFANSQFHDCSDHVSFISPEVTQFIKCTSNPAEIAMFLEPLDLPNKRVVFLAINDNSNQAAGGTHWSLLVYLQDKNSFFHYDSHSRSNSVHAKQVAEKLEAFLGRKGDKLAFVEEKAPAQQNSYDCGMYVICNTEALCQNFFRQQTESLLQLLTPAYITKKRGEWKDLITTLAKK

Candida albicans [4] = test: Candida growth effect without fluconazole – C. albicans CaCi-2, dry powder, counter-screen for antifungal drug resistance project, dose response (AID 488802); type: functional, organism-based
Candida albicans [5] = test: antifungal activity against resistant Candida strain – CaCi-8, fluconazole, Alamar Blue, dry powder, dose response (AID 488807); type: functional, organism-based
NIH3T3 = test: mammalian cell viability counter-check – Alamar Blue, fluconazole, dry powder, cytotoxicity control for antifungal drug resistance project, dose response (AID 488809); type: functional, cell-based; settings: Mus musculus
[6] = biological target: Latent membrane protein 1 (Human herpesvirus 4 (strain B95-8), UniProt P03230); test: LMP1 TES1 pathway selectivity over dsRED control – imaging, HEK293T, dual-color eGFP/dsRED, cherry-picks, selectivity assay for LMP1 NF-kB inhibitor project, dose response (AID 588398); type: functional, cell-based
Sequence of Latent membrane protein 1 (P03230 whole entry): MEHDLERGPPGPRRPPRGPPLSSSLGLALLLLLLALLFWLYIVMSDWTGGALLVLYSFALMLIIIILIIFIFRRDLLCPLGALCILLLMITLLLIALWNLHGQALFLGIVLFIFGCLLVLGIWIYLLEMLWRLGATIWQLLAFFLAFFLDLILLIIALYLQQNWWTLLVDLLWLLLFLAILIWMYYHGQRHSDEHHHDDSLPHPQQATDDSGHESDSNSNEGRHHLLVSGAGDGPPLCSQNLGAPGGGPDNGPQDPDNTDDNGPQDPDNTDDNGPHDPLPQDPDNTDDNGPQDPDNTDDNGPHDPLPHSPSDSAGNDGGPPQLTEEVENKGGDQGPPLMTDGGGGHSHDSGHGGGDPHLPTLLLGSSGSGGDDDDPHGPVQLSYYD

[7] = loss of viability in HepG2 cells – cell-based, CellTiter-Glo, cherry-picked, cytotoxicity control for Shn3 inhibitor project, dose response (AID 624134); type: functional
[8] = Fluorescence-based cell-based high throughput dose response assay for inhibitors of the interaction of nucleotide-binding oligomerization domain containing 2 (NOD2) and the receptor-interacting serine-threonine kinase 2 (RIPK2).; type: functional; settings: Homo sapiens
Beta-galactosidase = Beta-galactosidase (Escherichia coli, UniProt Q8VNN2); test: detection-enzyme interference by beta-gal modulators – biochemical, E. coli enzyme, set 3, artefact control for CCR6 antagonist project, dose response (AID 504712); type: functional
Sequence of Beta-galactosidase (Q8VNN2 whole entry): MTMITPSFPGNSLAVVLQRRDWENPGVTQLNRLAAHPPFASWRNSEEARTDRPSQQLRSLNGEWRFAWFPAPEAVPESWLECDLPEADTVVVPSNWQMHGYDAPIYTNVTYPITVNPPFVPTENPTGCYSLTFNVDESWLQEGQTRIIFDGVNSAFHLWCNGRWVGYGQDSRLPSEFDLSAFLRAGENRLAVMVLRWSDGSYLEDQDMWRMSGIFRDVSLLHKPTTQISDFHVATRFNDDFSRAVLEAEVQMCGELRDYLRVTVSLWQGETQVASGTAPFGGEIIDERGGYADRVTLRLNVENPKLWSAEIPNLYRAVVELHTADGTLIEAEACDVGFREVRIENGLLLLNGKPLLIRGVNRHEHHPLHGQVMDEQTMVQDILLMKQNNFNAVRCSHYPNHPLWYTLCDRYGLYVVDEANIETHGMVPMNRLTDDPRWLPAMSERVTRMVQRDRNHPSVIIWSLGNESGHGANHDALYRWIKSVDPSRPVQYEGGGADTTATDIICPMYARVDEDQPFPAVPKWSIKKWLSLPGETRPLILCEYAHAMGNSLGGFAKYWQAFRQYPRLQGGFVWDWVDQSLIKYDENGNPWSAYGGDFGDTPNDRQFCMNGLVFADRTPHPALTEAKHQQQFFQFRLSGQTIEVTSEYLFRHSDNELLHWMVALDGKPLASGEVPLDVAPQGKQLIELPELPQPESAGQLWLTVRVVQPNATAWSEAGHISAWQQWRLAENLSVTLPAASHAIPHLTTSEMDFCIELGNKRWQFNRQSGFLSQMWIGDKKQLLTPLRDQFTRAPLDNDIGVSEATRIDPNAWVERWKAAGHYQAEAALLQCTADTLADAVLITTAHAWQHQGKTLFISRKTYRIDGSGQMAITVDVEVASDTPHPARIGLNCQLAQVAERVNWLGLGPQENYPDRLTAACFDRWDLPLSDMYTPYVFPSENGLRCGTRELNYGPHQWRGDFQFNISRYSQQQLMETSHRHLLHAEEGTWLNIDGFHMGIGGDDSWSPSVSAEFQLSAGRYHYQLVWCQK

[9] = biological target: Neurotensin receptor type 1 (Homo sapiens, UniProt P30989); type: functional;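 further: Image-based confirmatory dose-response assay measuring agonist activity at NTR1; NTR1-expressing U2OS osteosarcoma cells imaged for beta-arrestin GFP spot formation; agonist potency where compounds increase beta-arrestin recruitment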
Sequence of Neurotensin receptor type 1 (P30989 whole entry): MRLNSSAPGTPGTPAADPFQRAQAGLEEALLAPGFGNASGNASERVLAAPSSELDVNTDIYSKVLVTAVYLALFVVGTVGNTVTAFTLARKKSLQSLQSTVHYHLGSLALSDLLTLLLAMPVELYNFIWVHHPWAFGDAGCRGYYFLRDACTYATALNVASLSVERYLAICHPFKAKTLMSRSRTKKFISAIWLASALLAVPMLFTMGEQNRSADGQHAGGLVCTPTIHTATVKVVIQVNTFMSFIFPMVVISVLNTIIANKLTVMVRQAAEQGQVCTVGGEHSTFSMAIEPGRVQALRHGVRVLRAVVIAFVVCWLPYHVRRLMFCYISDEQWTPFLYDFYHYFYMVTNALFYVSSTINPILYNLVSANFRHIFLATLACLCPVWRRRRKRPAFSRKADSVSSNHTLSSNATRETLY

HEK293 = test: EBV LMP1 TES2 canonical NF-kB signalling blockers – cell-based, HEK293, luciferase, cherry-pick, dose response (AID 588343); type: functional; settings: Homo sapiens
Beta Lactamase = Beta Lactamase (Pseudomonas aeruginosa, UniProt Q932Y6); test: BLA reporter interference, concentration series – BLA reporter cells, FRET fluorescence, artefact control for NOD2-RIPK2 interaction inhibitor project, dose response (AID 651552); type: functional, cell-based
Sequence of Beta Lactamase (Q932Y6 whole entry): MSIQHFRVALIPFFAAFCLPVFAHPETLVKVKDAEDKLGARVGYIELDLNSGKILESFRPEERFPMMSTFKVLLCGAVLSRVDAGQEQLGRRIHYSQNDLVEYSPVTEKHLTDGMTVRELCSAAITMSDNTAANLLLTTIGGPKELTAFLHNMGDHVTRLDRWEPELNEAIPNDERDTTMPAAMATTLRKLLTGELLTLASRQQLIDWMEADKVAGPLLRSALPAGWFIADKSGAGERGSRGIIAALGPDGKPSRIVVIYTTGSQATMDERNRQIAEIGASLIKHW

[10] = non-specific 3'UTR reporter inhibition in Clone20-Shn3RL – cell-based, Renilla luciferase, cherry-picked, counter-screen for Shn3 inhibitor project, dose response (AID 624133); type: functional
[11] = biological target: Induced myeloid leukemia cell differentiation protein Mcl-1 (Homo sapiens, UniProt Q07820); type: functional
Sequence of Induced myeloid leukemia cell differentiation protein Mcl-1 (Q07820 whole entry): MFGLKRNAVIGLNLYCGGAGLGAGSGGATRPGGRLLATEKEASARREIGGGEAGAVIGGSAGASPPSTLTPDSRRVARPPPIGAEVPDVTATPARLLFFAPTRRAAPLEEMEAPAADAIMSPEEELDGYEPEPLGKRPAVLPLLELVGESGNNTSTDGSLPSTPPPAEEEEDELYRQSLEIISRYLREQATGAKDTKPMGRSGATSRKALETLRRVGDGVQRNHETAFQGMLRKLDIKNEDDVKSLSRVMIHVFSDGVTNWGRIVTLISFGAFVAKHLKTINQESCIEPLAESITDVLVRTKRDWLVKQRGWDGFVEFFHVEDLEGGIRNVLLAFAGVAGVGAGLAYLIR

[12] = reduction of Shn3 3'UTR-driven luciferase in osteoblasts – cell-based, Clone20 osteoblasts, firefly luciferase, cherry-picked, dose response (AID 624132); type: functional;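 further: firefly luciferase luminescence from reporter carrying the Shn3 3'UTR in osteoblasts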
[13] = Vero cell viability loss – purified and synthesized compounds, set 6, cytotoxicity control for M. tuberculosis inhibitor project, dose response (AID 588445); type: functional; settings: Mycobacterium tuberculosis
[14] = THP-1 cell cytotoxicity, cytotoxicity control, set 5 (AID 588443); type: functional
[15] = biological target: Luciferin 4-monooxygenase (Photinus pyralis, UniProt P08659); test: inhibition of purified Photinus pyralis luciferase – biochemical, luminescence, dose response (AID 1891)
Sequence of Luciferin 4-monooxygenase (P08659 whole entry): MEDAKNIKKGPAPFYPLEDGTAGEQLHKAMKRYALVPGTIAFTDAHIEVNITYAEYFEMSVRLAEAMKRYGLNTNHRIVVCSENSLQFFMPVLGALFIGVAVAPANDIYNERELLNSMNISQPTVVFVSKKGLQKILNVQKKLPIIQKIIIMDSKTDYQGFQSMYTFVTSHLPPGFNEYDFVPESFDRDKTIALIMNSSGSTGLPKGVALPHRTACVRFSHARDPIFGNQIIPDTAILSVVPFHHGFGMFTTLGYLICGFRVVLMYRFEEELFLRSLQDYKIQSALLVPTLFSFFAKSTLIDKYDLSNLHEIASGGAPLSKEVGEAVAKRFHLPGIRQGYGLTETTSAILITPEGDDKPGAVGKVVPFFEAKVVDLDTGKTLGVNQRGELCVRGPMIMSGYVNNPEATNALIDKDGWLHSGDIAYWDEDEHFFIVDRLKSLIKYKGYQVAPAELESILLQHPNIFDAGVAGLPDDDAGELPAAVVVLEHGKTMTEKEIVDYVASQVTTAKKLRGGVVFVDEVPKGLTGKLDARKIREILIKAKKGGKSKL

[16] = Luminescence Cell-Based Dose Confirmation HTS to Identify Inhibitors of Platelet Dense Granule Release. [Related pubchem assays: 1663 (Primary HTS), 1678 (Summary of Project)]; type: functional
[17] = biological target: Protein disulfide-isomerase (Homo sapiens, UniProt P07237); test: inhibition of PDI-driven insulin aggregation – biochemical, turbidity, absorbance, cherry-picked samples, dose response (AID 602350); type: functional
Sequence of Protein disulfide-isomerase (P07237 whole entry): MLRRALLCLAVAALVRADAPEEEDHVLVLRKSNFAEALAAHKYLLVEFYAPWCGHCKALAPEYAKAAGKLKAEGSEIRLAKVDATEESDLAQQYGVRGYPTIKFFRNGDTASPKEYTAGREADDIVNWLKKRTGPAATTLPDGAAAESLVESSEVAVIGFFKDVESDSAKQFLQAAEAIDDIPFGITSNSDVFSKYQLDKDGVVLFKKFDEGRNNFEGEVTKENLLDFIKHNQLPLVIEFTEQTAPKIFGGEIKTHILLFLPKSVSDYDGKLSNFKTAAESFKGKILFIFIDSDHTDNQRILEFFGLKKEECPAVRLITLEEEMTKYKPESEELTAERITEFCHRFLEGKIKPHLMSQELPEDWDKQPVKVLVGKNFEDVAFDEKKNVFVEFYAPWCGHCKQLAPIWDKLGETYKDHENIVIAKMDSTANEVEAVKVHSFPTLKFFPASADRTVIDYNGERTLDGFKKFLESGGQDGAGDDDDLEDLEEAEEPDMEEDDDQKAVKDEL

[18] = biological target: Scavenger receptor class B member 1 (Mus musculus, UniProt Q61009); test: blockers of DiI-HDL lipid transfer via SR-BI – cell-based, ldlA[mSR-BI] CHO, DiI fluorescence, dry powder, set 10, dose response (AID 624029); type: functional
Sequence of Scavenger receptor class B member 1 (Q61009 whole entry): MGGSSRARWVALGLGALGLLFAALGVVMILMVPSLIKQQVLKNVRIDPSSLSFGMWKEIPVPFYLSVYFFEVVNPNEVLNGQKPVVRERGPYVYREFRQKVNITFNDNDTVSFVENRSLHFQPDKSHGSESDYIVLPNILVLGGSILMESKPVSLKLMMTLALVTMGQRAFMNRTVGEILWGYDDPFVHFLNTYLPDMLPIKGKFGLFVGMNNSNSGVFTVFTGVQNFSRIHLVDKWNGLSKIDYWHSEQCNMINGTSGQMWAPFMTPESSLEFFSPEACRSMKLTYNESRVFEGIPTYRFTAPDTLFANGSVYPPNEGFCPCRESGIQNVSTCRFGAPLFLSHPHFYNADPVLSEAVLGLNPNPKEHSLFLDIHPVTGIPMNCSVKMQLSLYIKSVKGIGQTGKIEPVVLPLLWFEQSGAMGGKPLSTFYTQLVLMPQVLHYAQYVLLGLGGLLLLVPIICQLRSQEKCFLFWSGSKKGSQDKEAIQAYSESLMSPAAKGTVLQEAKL

NS(=O)(=O)c1ccc(CCNC(=O)C(=O)c2c[nH]c3ccccc23)cc1
IC50 (Caspase-3): > 99 µM (inactive)
IC50 [1]: > 99 µM (inactive)
IC50 [2]: > 99 µM (inactive)
IC50 [3]: > 99 µM (inactive)

COc1ccc(NC(=O)Cn2c3ccccc3c3nc4n(c(=O)c32)CCS4)cc1
AC50 (Candida albicans [4]): 50.1 µM (active)
AC50 (Candida albicans [5]): 12.7 µM (active)
AC50 (NIH3T3): 34.2 µM (active)

CCOc1ccc(/C=C/[N+](=O)[O-])c2ccccc12
AC50 [6]: 1.63 µM (active)
AC50 [7]: 3.78 µM (active)
IC50 [8]: 1.76 µM (active)
IC50 (Beta-galactosidase): > 66.6 µM (inactive)
EC50 [9]: 9.56 µM (active)
AC50 (HEK293): 4.67 µM (active)
IC50 (Beta Lactamase): 43.1 µM (inactive)
AC50 [10]: 13.9 µM (active)
IC50 [11]: 2.18 µM (active)
AC50 [12]: 4.27 µM (active)

O=C(NCCc1ccc(Cl)cc1)c1ccc(CNc2c(N3CCOCC3)c(=O)c2=O)cc1
CC50 [13]: > 100 µM (active)
CC50 [14]: > 100 µM (active)
EC50 [15]: > 112 µM (not active)
EC50 [16]: > 112 µM (not active)

C[C@@H]1CN([C@H](C)CO)C(=O)c2cc(NC(=O)Cc3cn(C)c4ccccc34)ccc2O[C@H]1CN(C)S(=O)(=O)c1ccc(F)cc1
AC50 [17]: 1.26 µM (active) and 16.4 µM (active)
AC50 [18]: 0.00202 µM (active)
